In the test the target is T1, human TRPV4 (Homo sapiens, UniProt Q9HBA0).
T1 construct: expressed in transfected cells; host or cells: HEK-293-MSR-II cells transduced with 1% BacMam virus
The test is described as follows: Ligand-gated assay (Fluo4 calcium, FLIPR; inhibition of agonist-induced activation). Particulars: HEK-293-MSR-II cells transduced with BacMam human TRPV4; agonist at EC80. Format: cell-based. Put shortly:
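HEK-293-MSR-II cells BacMam-transduced with human TRPV4, loaded with 2 uM Fluo-4. Compound preincubated 10 min at room temperature in HBSS pH 7.4 plus 0.01% Chaps, then agonist added at its EC80. Inhibition of agonist-evoked calcium rise read on FLIPR; IC50 reported.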

Here are results for 28 compounds from patent publication US9187464B2, “TRPV4 antagonists” (GlaxoSmithKline Intellectual Property (No. 2) Limited, priority 2011, dated 2015).

T1 sequence (Q9HBA0 whole entry): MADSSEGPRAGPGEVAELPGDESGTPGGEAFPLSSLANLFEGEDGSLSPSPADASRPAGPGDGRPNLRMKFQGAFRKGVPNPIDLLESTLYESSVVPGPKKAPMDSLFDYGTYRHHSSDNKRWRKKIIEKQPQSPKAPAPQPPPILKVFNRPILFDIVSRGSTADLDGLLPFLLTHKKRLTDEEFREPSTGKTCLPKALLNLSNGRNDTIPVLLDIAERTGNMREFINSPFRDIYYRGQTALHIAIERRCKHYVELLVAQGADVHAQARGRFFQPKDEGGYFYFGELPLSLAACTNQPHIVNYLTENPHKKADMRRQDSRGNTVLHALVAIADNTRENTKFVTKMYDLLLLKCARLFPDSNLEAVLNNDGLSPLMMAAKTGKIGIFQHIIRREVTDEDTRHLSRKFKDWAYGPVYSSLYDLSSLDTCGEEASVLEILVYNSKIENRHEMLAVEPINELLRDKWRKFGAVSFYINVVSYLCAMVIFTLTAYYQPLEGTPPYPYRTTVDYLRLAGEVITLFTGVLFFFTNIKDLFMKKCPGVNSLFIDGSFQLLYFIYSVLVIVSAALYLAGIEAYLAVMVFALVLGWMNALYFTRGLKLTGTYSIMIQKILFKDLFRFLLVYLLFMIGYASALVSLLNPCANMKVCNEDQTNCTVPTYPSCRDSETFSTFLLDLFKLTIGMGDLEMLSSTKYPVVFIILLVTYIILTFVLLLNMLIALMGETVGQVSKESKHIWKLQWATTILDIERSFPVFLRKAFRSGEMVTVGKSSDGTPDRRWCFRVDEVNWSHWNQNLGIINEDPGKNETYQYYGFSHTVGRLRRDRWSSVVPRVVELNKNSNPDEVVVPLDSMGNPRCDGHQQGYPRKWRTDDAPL

On to `CC(C)(CN1C[C@@]2(CCC[C@H](Cn3cnc4ccc(C#N)cc43)C2)OC1=O)c1nc(-c2cncnc2)no1` [Example 78, 1-[((5S,7S)-3-{2-methyl-2-[3-(5-pyrimidinyl)-1,2,4-oxadiazol-5-yl]propyl}-2-oxo-1-oxa-3-azaspiro[4.5]dec-7-yl)methyl]-1H-benzimidazole-6-carbonitrile], for which the IC50 (usually the concentration needed to halve the response being measured) was in the range of 0.1 to 10 nM.
To `C[C@]1(Cn2cnc3ccc(C#N)cc32)CCC[C@@]2(CN(c3ncc(Cl)cc3Cl)C(=O)O2)C1` [Example 112, 1-(((7S)-3-(3,5-dichloropyridin-2-yl)-7-methyl-2-oxo-1-oxa-3-azaspiro[4.5]decan-7-yl)methyl)-1H-benzo[d]imidazole-6-carbonitrile] belongs 0.1 to 10 nM; to `Cc1noc(C(C)(C)CN2C[C@@]3(CCC[C@H](Cn4cnc5ccc(C#N)cc54)C3)OC2=O)n1` [Example 74, 1-({(5S,7S)-3-[2-methyl-2-(3-methyl-1,2,4-oxadiazol-5-yl)propyl]-2-oxo-1-oxa-3-azaspiro[4.5]dec-7-yl}methyl)-1H-benzimidazole-6-carbonitrile], 10 to 50 nM; to `CCOc1ccc(N2C[C@@]3(CCC[C@](C)(Cn4cnc5ccc(C#N)cc54)C3)OC2=O)cn1` [Example 12, ′1-({(5S,7S)-3-[6-(Ethyloxy)-3-pyridinyl]-7-methyl-2-oxo-1-oxa-3-azaspiro[4.5]dec-7-yl}methyl)-1H-benzimidazole-6-carbonitrile], 0.1 to 10 nM.
On to `COc1ccc(N2C[C@@]3(CCC[C@](C)(Cn4cnc5ccc(C#N)cc54)C3)OC2=O)cn1` [Example 13], for which the IC50 fell in the range of 0.1 to 10 nM.
`Cn1nc(CN2C[C@@]3(CCC[C@H](Cn4cnc5ccc(C#N)cc54)C3)OC2=O)cc1-c1ccccc1` [Example 69, 1-({(5S,7S)-3-[(1-methyl-5-phenyl-1H-pyrazol-3-yl)methyl]-2-oxo-1-oxa-3-azaspiro[4.5]dec-7-yl}methyl)-1H-benzimidazole-6-carbonitrile]: the IC50 was in the range of 50 to 500 nM.
As to `CC(C)(C)n1cc(N2C[C@@]3(CCC[C@](C)(Cn4cnc5ccc(C#N)cc54)C3)OC2=O)cn1` [Example 43, 1-(((5S,7S)-3-(1-(tert-butyl)-1H-pyrazol-4-yl)-7-methyl-2-oxo-1-oxa-3-azaspiro[4.5]decan-7-yl)methyl)-1H-benzo[d]imidazole-6-carbonitrile], the IC50 is 10 to 50 nM.
For `CC(C)(OCCOP(C)(C)=O)c1cnc(N2C[C@@]3(CCC[C@](C)(Cn4cnc5ccc(C#N)cc54)C3)OC2=O)cn1` [Example 164, 2-((2-(5-((5S,7S)-7-((6-cyano-1H-benzo[d]imidazol-1-yl)methyl)-7-methyl-2-oxo-1-oxa-3-azaspiro[4.5]decan-3-yl)pyrazin-2-yl)propan-2-yl)oxy)ethyl dimethylphosphinate] the value was 10 to 50 nM.
As for `CC(C)Cc1noc(C(C)(C)CN2C[C@@]3(CCC[C@H](Cn4cnc5ccc(C#N)cc54)C3)OC2=O)n1` [Example 82, 1-[((5S,7S)-3-{2-methyl-2-[3-(2-methylpropyl)-1,2,4-oxadiazol-5-yl]propyl}-2-oxo-1-oxa-3-azaspiro[4.5]dec-7-yl)methyl]-1H-benzimidazole-6-carbonitrile], the IC50 lay in the range of 0.1 to 10 nM.
Regarding `C[C@]1(Cn2cnc3ccc(C#N)cc32)CCC[C@@]2(CN(c3ccc(Cl)nc3)C(=O)O2)C1` [Example 18], the IC50 was 10 to 50 nM.
On to `C[C@]1(Cn2cnc3ccc(C#N)cc32)CCC[C@@]2(CN(c3ncc(C(F)(F)F)cn3)C(=O)O2)C1` [Example 54, 1-(((5S,7S)-7-methyl-2-oxo-3-(5-(trifluoromethyl)pyrimidin-2-yl)-1-oxa-3-azaspiro[4.5]decan-7-yl)methyl)-1H-benzo[d]imidazole-6-carbonitrile], for which the IC50 is 50 to 500 nM.
As for `Cc1cnc(N2C[C@@]3(CCC[C@](C)(Cn4cnc5ccc(C#N)cc54)C3)OC2=O)c(Cl)c1` [Example 128, 1-(((5S,7S)-3-(3-chloro-5-methylpyridin-2-yl)-7-methyl-2-oxo-1-oxa-3-azaspiro[4.5]decan-7-yl)methyl)-1H-benzo[d]imidazole-6-carbonitrile], the IC50 was in the range of 0.1 to 10 nM.
Turning to `N#Cc1ccc2ncn(C[C@H]3CCC[C@]4(C3)CN(Cc3cc(-c5ccc(Cl)cc5)no3)C(=O)O4)c2c1` [Example 67, 1-[((5S,7S)-3-{[3-(4-chlorophenyl)-5-isoxazolyl]methyl}-2-oxo-1-oxa-3-azaspiro[4.5]dec-7-yl)methyl]-1H-benzimidazole-6-carbonitrile], the IC50 is 10 to 50 nM.
Take `CC(C)(C#N)c1noc(N2C[C@@]3(CCC[C@](C)(Cn4cnc5ccc(C#N)cc54)C3)OC2=O)c1Cl` [Example 107, 1-(((5S,7S)-3-(4-chloro-3-(2-cyanopropan-2-yl)isoxazol-5-yl)-7-methyl-2-oxo-1-oxa-3-azaspiro[4.5]decan-7-yl)methyl)-1H-benzo[d]imidazole-6-carbonitrile]: the IC50 was in the range of 0.1 to 10 nM.
For `CC(C)OCc1noc(C(C)(C)CN2C[C@@]3(CCC[C@H](Cn4cnc5ccc(C#N)cc54)C3)OC2=O)n1` [Example 83, 1-({(5S,7S)-3-[2-methyl-2-(3-{[(1-methylethyl)oxy]methyl}-1,2,4-oxadiazol-5-yl)propyl]-2-oxo-1-oxa-3-azaspiro[4.5]dec-7-yl}methyl)-1H-benzimidazole-6-carbonitrile] the value was 0.1 to 10 nM; for `N#Cc1ccc2ncn(C[C@H]3CCC[C@]4(C3)CN(Cc3nc(-c5ccccc5)cs3)C(=O)O4)c2c1` [Example 66, 1-({(5S,7S)-2-oxo-3-[(4-phenyl-1,3-thiazol-2-yl)methyl]-1-oxa-3-azaspiro[4.5]dec-7-yl}methyl)-1H-benzimidazole-6-carbonitrile], 10 to 50 nM; for `C[C@]1(Cn2cnc3ccc(C#N)cc32)CCC[C@]2(CN(Cc3cn(-c4ccccc4)nn3)C(=O)O2)C1` [Example 105, 1-({(5R,7S)-7-methyl-2-oxo-3-[(1-phenyl-1H-1,2,3-triazol-4-yl)methyl]-1-oxa-3-azaspiro[4.5]dec-7-yl}methyl)-1H benzimidazole-6-carbonitrile], 10 to 50 nM.
Take `CC(C)(C#N)c1cc(N2C[C@@]3(CCC[C@](C)(Cn4cnc5ccc(C#N)cc54)C3)OC2=O)on1` [Example 2]: the IC50 was 0.1 to 10 nM.
For `CC(C)(C)c1noc(N2C[C@@]3(CCC[C@](C)(Cn4cnc5ccc(C#N)cc54)C3)OC2=O)c1Cl` [Example 10, 1-({(5S,7S)-3-[4-Chloro-3-(1,1-dimethylethyl)-5-isoxazolyl]-7-methyl-2-oxo-1-oxa-3-azaspiro[4.5]dec-7-yl}methyl)-1H-benzimidazole-6-carbonitrile] the value was 0.1 to 10 nM; for `CCOc1ccnc(CN2C[C@@]3(CCC[C@](C)(Cn4cnc5ccc(C#N)cc54)C3)OC2=O)c1` [Example 156, 1-(((5S,7S)-3-((4-ethoxypyridin-2-yl)methyl)-7-methyl-2-oxo-1-oxa-3-azaspiro[4.5]decan-7-yl)methyl)-1H-benzo[d]imidazole-6-carbonitrile], 0.1 to 10 nM.
Regarding `CC(C)(O)c1ncc(N2C[C@@]3(CCC[C@](C)(Cn4cnc5ccc(C#N)cc54)C3)OC2=O)cn1` [Example 148, 1-(((5S,7S)-3-(2-(2-hydroxypropan-2-yl)pyrimidin-5-yl)-7-methyl-2-oxo-1-oxa-3-azaspiro[4.5]decan-7-yl)methyl)-1H-benzo[d]imidazole-6-carbonitrile], the concentration for half-maximal inhibition (IC50) was 10 to 50 nM.
For the compound `COc1cc(OC)c(N2C[C@@]3(CCC[C@](C)(Cn4cnc5ccc(C#N)cc54)C3)OC2=O)cn1` [Example 22, 1-(((5S,7S)-3-(4,6-Dimethoxyipyridin-3-yl)-7-methyl-2-oxo-1-oxa-3-azasbiro[4.5]decan-7-yl)methyl)-1H-benzo[d]imidazole-6-carbonitrile], the IC50 was in the range of 0.1 to 10 nM.
Take `COc1cc(C)cnc1N1C[C@@]2(CCC[C@](C)(Cn3cnc4ccc(C#N)cc43)C2)OC1=O` [Example 127, 1-(((5S,7S)-3-(3-methoxy-5-methylpyridin-2-yl)-7-methyl-2-oxo-1-oxa-3-azaspiro[4.5]decan-7-yl)methyl)-1H-benzo[d]imidazole-6-carbonitrile]: the IC50 fell in the range of 10 to 50 nM.
In the case of `Cc1c(C(C)(C)C)noc1N1C[C@@]2(CCC[C@H](Cn3cnc4ccc(C#N)cc43)C2)OC1=O` [Example 46, 1-(((5S,7S)-3-(3-(tert-butyl)-4-methylisoxazol-5-yl)-2-oxo-1-oxa-3-azaspiro[4.5]decan-7-yl)methyl)-1H-benzo[d]imidazole-6-carbonitrile], the IC50 fell in the range of 0.1 to 10 nM.
For the compound `Cc1cc(Cl)ncc1N1C[C@@]2(CCC[C@](C)(Cn3cnc4ccc(C#N)cc43)C2)OC1=O` [Example 119, 1-(((5S,7S)-3-(6-chloro-4-methylpyridin-3-yl)-7-methyl-2-oxo-1-oxa-3-azaspiro[4.5]decan-7-yl)methyl)-1H-benzo[d]imidazole-6-carbonitrile], the IC50 was 0.1 to 10 nM.
As for `N#Cc1ccc2ncn(C[C@H]3CCC[C@]4(C3)CN(Cc3cc(-c5ccccc5)no3)C(=O)O4)c2c1` [Example 68, 1-({(5S,7S)-2-oxo-3-[(3-phenyl-5-isoxazolyl)methyl]-1-oxa-3-azaspiro[4.5]dec-7-yl}methyl)-1H-benzimidazole-6-carbonitrile], the IC50 was in the range of 10 to 50 nM.
Consider `Cc1cnc(N2C[C@@]3(CCC[C@](C)(Cn4cnc5ccc(C#N)cc54)C3)OC2=O)cn1` [Example 117, 1-(((5S,7S)-7-methyl-3-(5-methylpyrazin-2-yl)-2-oxo-1-oxa-3-azaspiro[4.5]decan-7-yl)methyl)-1H-benzo[d]imidazole-6-carbonitrile], for which the IC50 is 50 to 500 nM.
Turning to `N#Cc1ccc2ncn(C[C@H]3CCC[C@]4(C3)CN(Cc3cn(-c5cccc(C(F)(F)F)c5)nn3)C(=O)O4)c2c1` [Example 93, 1-{[(5S,7S)-2-oxo-3-({1-[3-(trifluoromethyl)phenyl]-1H-1,2,3-triazol-4-yl}methyl)-1-oxa-3-azaspiro[4.5]dec-7-yl]methyl}-1H-benzimidazole-6-carbonitrile], the IC50 fell in the range of 0.1 to 10 nM.
